From patent publication US20050244472A1, “Intraocular drug delivery systems containing excipients with reduced toxicity and related methods” (Allergan, Inc., priority 2004, published 2005)
Like-named read-outs stand apart in the source and are kept apart here.

Key:
[1] = Osmolarity of excipient-containing incubating solutions; assay type: physicochemical
Experimental: Osmolarity was measured using osmometer type 13/13DR from Roebling (Berlin, GR).
(§1) For each concentration of tested compound, pH and osmolarity parameters were measured.

ARPE-19 cells [2] = assay type: cell-based
Experimental: Cell morphology was visualized using light microscopy. Cell morphology observation using light microscopy permits determination of (i) cell number and density and (ii) whether or not cells in contact with an excipient agent display modified phenotype compared to a non-treated population of cells.
Cell morphology was analyzed in parallel by semi-quantitative scoring ranging from 5 to 1, from basal to lethal phenotype respectively, as shown in FIG. 23.
More specifically, cells were removed from an incubator for examination. Morphological shape of cells was visualized using a light microscope and CCD camera. Every 3 wells of a given concentration was observed through image analysis software. Then, a representative photograph describing the average appearance of cells was saved. The supernatant was either, kept for further predefined experiments to perform, or removed using vacuum-pump.
Resulting semi-quantitative scoring is represented as a function of time course and dose response. Score 5: wild type phenotype of non-treated cells, 100% confluent adherent cells. This phenotype very much vary following post-seeding time. For example, at confluence ARPE-19 cells at 1 day appear well defined with visible outer membrane and dark grey cytoplasm. After 3 days of confluence, limits between cells become less visible and cells adopt a more hexagonal shape and constitute an epithelium-like uniform dense structure. Score 4: density<100%. Cell shape has changed, some spaces are present between cells, few cells possibly detached. Score 3: […]. Spaces are sometimes present among cells, areas appears confluent while in others, cells detached. General cell shape starts showing non negligible alterations. Score 2: Cell density<50%. Cells adopt exclusively stressed appearance, presence of mass dead floating cells. Score 1: Cell density<10%. Presence of almost exclusively dead cells.
Based on quotation, each condition of the applied compound was given a score which allow to a morphology evolution profile to be prepared, ie. cell morphology as a function of compound concentration and time of exposure. […]

ARPE-19 cells [3] = experiment: in vitro
Text: (§2) Cell viability and cell morphology were examined to evaluate the toxicity of excipients on retinal pigment epithelial cells. The human retina cell line used in these experiments is the ARPE-19 cell line (human adult-derived retinal pigmented epithelial cells). […] They form tight-junctions with transepithelial resistance of monolayers (Dunn K C et al., supra). From a molecular standpoint, it appears that ARPE-19 express a huge pattern of genes similar to those expressed by human RPE from fresh explant which could account for their physiological function (Klimanskaya I. et al., “Derivation and comparative assessment of retinal pigment epithelium from human embryonic stem cells using transcriptomics”, Cloning and Stem Cells, 2004, 6(3):217-45).
(§3) ARPE-19 cells are widely used as a retinal model that resemble physiological properties of RPE cells. Similar methods of culturing ARPE-19 cells and cytotoxicity assays can be found in Yeung et al., “Cytotoxicity of triamcinolone on cultured human retinal pigment epithelial cells: comparison with dexamethasone and hydrocortisone”, Jpn J. Ophthalmol, 2004; 48:236-242. Cell viability and cell morphology were examined using conventional colormetric and visual methods. Viability and morphology measurements were obtained at 24 hours, 48 hours, and 72 hours after exposure to an excipient composition.
(§4) To assess cell viability, mitochondrial metabolism was quantified through conventional colorometric assays (i.e., the MTT assay). This colorimetric assay utilizes 3-(4,5-dimethylthiazol-2-yl)-2,5-diphenyltetrazolium bromide (MTT) and correlates mitochondrial metabolism and cell viability through measurement of dehydrogenase activity which converts a substrate into crystal. More specifically, the assay measures the activity of living cells through mitochondrial dehydrogenases. When dissolved in culture cell medium, MTT solution appears dark orange. Mitochondrial dehydrogenases of viable cells degrade MTT by cleaving the tetrazolium ring yielding to formation of a purple formazan crystal, which is insoluble in water. Crystals are subsequently dissolved in isopropanol solution. A resulting purple solution is spectrophotometrically measured. Cell viability is relative to amount of formazan and calculated as a percentage of remaining treated compared to non-treated cells.
(§5) Results from the MTT assay were expressed as a percentage of cell viability calculated using the following equation: % cell viability=ODtest/ODcontrol×100.
(§6) For each experiment, one concentration was performed in triplicate. Each point was spectrophotometrically read twice. Average of readings was calculated, then average from these 3 values was determined.
(§7) After 3 experiments were independently completed under the same conditions, a graph was plotted with cell viability expressed as a function of concentration (dose response) and for various incubation period (time course). The IC50 was then estimated based on the graphed data.
(§8) More specifically, cell density in 24-multiwell plates was observed on the day of the experiment to check if confluence of the cells was reached. Aliquots of MTT concentrated solutions were removed from a freezer at −20° C. and thawed at room temperature. Cell medium was warmed at 37° C. before use. Appropriated tubes for diluting compounds were prepared. Higher concentrations of each excipient agent was prepared. Serial dilution was then performed in cell medium (DMEM:F12+10% FBS).
(§9) Cell culture medium in the 24-well plate was removed using vacuum-pump. Cells were then stimulated with 0.5 ml final volume for each concentration of one given excipient agent. Distribution of the excipient-containing solution was performed using automated pipet-aid in sterile environment (under PSM) or not depending on time of compounds and duration of incubation.
(§10) After stimulation, cells were replaced in a CO2 incubator for the required time of exposure.

in vitro = conditions: human
Text: as §2, §3, §4, §5, §6, §7, §8, §9, §10

[4] = pH of excipient-containing incubating solutions; assay type: physicochemical
Experimental: as §1

[5] = 0.05% excipient dilution in culture medium
[6] = 0.1% excipient dilution in culture medium
[7] = 0.5% excipient dilution in culture medium
[8] = 1% excipient dilution in culture medium
[9] = 2% excipient dilution in culture medium
[10] = […] excipient dilution in culture medium

For `OCc1ccccc1` [Benzyl alcohol, benzyl alcohol], the mOsm [1, 5] was 293 mOsm, the mOsm [1, 6] was 307 mOsm and the mOsm [1, 7] was 347 mOsm. It also gave a mOsm [1, 8] of 398 mOsm, a mOsm [1, 9] of 493 mOsm and a mOsm [1, 10] of 444 mOsm. The “living cells (morphology observation)” value (ARPE-19 cells [2]) was “no living cells survived”, the “Morphology limit concentration (%)” value (ARPE-19 cells [2]; human) was 0.07% and the “Cell Morphology score, Mean” value (ARPE-19 cells [2]; human, 24 h, 0.05 %) was 3.3. For the same compound, the “Cell Morphology score, Mean” value (ARPE-19 cells [2]; human, 24 h, 0.1 %) was 3.0, the “Cell Morphology score, Mean” value (ARPE-19 cells [2]; human, 24 h, 0.5 %) was 1.0 and the “Cell Morphology score, Mean” value (ARPE-19 cells [2]; human, 24 h, 1 %) was 1.0. For the same compound, the “Cell Morphology score, Mean” value (ARPE-19 cells [2]; human, 24 h, 2 %) was 1.0, the “Cell Morphology score, Mean” value (ARPE-19 cells [2]; human, 24 h, […]) was 1.0 and the “Cell Morphology score, Mean” value (ARPE-19 cells [2]; human, 48 h, 0.05 %) was 3.7. The “Cell Morphology score, Mean” value (ARPE-19 cells [2]; human, 48 h, 0.1 %) was 3.0, the “Cell Morphology score, Mean” value (ARPE-19 cells [2]; human, 48 h, 0.5 %) was 1.0 and the “Cell Morphology score, Mean” value (ARPE-19 cells [2]; human, 48 h, 1 %) was 1.0. The “Cell Morphology score, Mean” value (ARPE-19 cells [2]; human, 48 h, 2 %) was 1.0, the “Cell Morphology score, Mean” value (ARPE-19 cells [2]; human, 48 h, […]) was 1.0 and the “Cell Morphology score, Mean” value (ARPE-19 cells [2]; human, 72 h, 0.05 %) was 3.3. For the same compound, the “Cell Morphology score, Mean” value (ARPE-19 cells [2]; human, 72 h, 0.1 %) was 3.0, the “Cell Morphology score, Mean” value (ARPE-19 cells [2]; human, 72 h, 0.5 %) was 1.0 and the “Cell Morphology score, Mean” value (ARPE-19 cells [2]; human, 72 h, 1 %) was 1.0. The “Cell Morphology score, Mean” value (ARPE-19 cells [2]; human, 72 h, 2 %) was 1.0, the “Cell Morphology score, Mean” value (ARPE-19 cells [2]; human, 72 h, […]) was 1.0 and the “overall cytotoxicity to ARPE-19 cells (conclusion in words)” value (ARPE-19 cells [3]) was “very aggressive impact”. The cytotoxicity at 0.05 % (in vitro) was ~45%, the viability at 24 h, 0.05 % (in vitro; Cell Viability) was 56.1% and the viability at 24 h, 0.1 % (in vitro; Cell Viability) was 48%. It also gave a viability at 48 h, 0.05 % (in vitro; Cell Viability) of 60.9%, a viability at 48 h, 0.1 % (in vitro; Cell Viability) of 49% and a viability at 48 h, 0.5 % (in vitro; Cell Viability) of 1.2%. The viability at 72 h, 0.05 % (in vitro; Cell Viability) was 57.5%, the viability at 72 h, 0.1 % (in vitro; Cell Viability) was 49.1% and the viability at 24 h, 0.05 % (in vitro; Cell Viability, Mean (%)) was 55.7%. For the same compound, the viability at 24 h, 0.1 % (in vitro; Cell Viability, Mean (%)) was 45.9%, the viability at 24 h, 0.5 % (in vitro; Cell Viability, Mean (%)) was 13.3% and the viability at 24 h, 1 % (in vitro; Cell Viability, Mean (%)) was 0.4%. The viability at 24 h, 2 % (in vitro; Cell Viability, Mean (%)) was 0.3%, the viability at 24 h, […] (in vitro; Cell Viability, Mean (%)) was 0.4% and the viability at 48 h, 0.05 % (in vitro; Cell Viability, Mean (%)) was 57.3%. It also gave a viability at 48 h, 0.1 % (in vitro; Cell Viability, Mean (%)) of 42%, a viability at 48 h, 0.5 % (in vitro; Cell Viability, Mean (%)) of 1.5% and a viability at 48 h, 1 % (in vitro; Cell Viability, Mean (%)) of 1.5%. For the same compound, the viability at 48 h, 2 % (in vitro; Cell Viability, Mean (%)) was 1.2%, the viability at 48 h, […] (in vitro; Cell Viability, Mean (%)) was 1.3% and the viability at 72 h, 0.05 % (in vitro; Cell Viability, Mean (%)) was 53.7%. For the same compound, the viability at 72 h, 0.1 % (in vitro; Cell Viability, Mean (%)) was 42.2%, the viability at 72 h, 0.5 % (in vitro; Cell Viability, Mean (%)) was 1.1% and the viability at 72 h, 1 % (in vitro; Cell Viability, Mean (%)) was 0.9%. It also gave a viability at 72 h, 2 % (in vitro; Cell Viability, Mean (%)) of 1%, a viability at 72 h, […] (in vitro; Cell Viability, Mean (%)) of 1% and a pH [4, 5] of 8. For the same compound, the pH [4, 6] was 8.1, the pH [4, 7] was 8 and the pH [4, 8] was 7.9. The pH [4, 9] was 8 and the pH [4, 10] was 7.9.
